{
  "source": "patent US20090030179A1",
  "about": "“ANTIMICROBIAL PEPTIDE AND USE THEREOF” (TOAGOSEI CO., LTD, priority 2005, published 2009)",
  "key": {"[1]": {"system": "Gram-negative bacteria (Escherichia coli)", "assay_type": "cell-based", "details": "for Antimicrobial Activities (MIC) E. coli: Gram-negative bacteria, 24 h", "method": "(§1) Regarding the antimicrobial peptides (samples 1 to 12) and the peptide of comparative sample 1 related to the present invention, their antimicrobial activities (minimum inhibitory concentration: MIC) against Gram-negative bacteria (Escherichia coli) and Gram-positive bacteria (Staphylococcus aureus) were determined, as described below, by liquid medium dilution method using a 96-well microplate. […] The prepared liquid broth media containing the peptide at each concentration described above were then loaded onto 96-well microplates in 100-μL aliquots. At the same time, the tested bacteria cultured for 18 hours at 37° C. on an agar plate (“Muller Hinton Agar” manufactured by DIFCO) were collected by scraping with a loop, and then suspended in sterilized physiological saline. 5 μL of bacterial suspension prepared to be equivalent to 2×10^7 cells/mL was inoculated (number of bacteria to be tested: approximately 1×10^6 cells/mL) into each well of the above-described microplate filled with the liquid broth media containing the peptide at each concentration. After inoculation, the microplate was then incubated in an incubator at 37° C., and the presence of bacteria was evaluated based on the turbidity after 24 hours. The minimum drug concentration (polypeptide concentration), at which no increase in bacterial turbidity was detected at the time of measurement, was defined as MIC (minimum inhibitory concentration) (unit: μM) in the present embodiment."}, "[2]": {"system": "Gram-positive bacteria (Staphylococcus aureus)", "assay_type": "cell-based", "details": "for Antimicrobial Activities (MIC) S. aureus: Gram-positive bacteria, 24 h", "method": "as §1"}},
  "note": "Residues, ends and D or L forms follow the SMILES beside them.",
  "data": [
    {"compound": "CC(C)C[C@H](NC(=O)[C@H](CS)NC(=O)[C@H](CCCNC(=N)N)NC(=O)[C@H](CCC(=O)O)NC(=O)[C@H](CCCCN)NC(=O)[C@H](CC(C)C)NC(=O)[C@@H](N)[C@@H](C)O)C(=O)N[C@@H](CCC(N)=O)C(=O)N[C@H](C(=O)N[C@H](C(=O)N[C@@H](CCCNC(=N)N)C(=O)N[C@@H](CO)C(=O)N[C@@H](CC(C)C)C(=O)N[C@H](C(=O)N[C@@H](CCCCN)C(N)=O)C(C)C)C(C)C)C(C)C", "note": "[Sample 1, TLKERCLQVVRSLVK]", "values": [
      {"measurement": "Antimicrobial Activities (MIC) E. coli", "setting": "[1]", "value": 6.25, "unit": "µM"},
      {"measurement": "Antimicrobial Activities (MIC) S. aureus", "setting": "[2]", "value": 3.13, "unit": "µM"}
    ]},
    {"compound": "CC[C@H](C)[C@H](NC(=O)[C@H](Cc1c[nH]cn1)NC(=O)[C@H](CCC(N)=O)NC(=O)[C@H](CC(C)C)NC(=O)[C@@H](N)CO)C(=O)N[C@@H](CS)C(=O)N[C@@H](CCCNC(=N)N)C(=O)N[C@H](C(=O)N[C@H](C(=O)N[C@H](C(=O)N[C@@H](CS)C(=O)N[C@@H](CC(N)=O)C(=O)N[C@@H](CS)C(=O)N[C@H](C(=O)N[C@H](C(N)=O)[C@@H](C)O)[C@@H](C)O)[C@@H](C)CC)C(C)C)[C@@H](C)O", "note": "[Sample 7, SLQHICRTVICNCTT] (H-SLQHICRTVICNCTT-NH2)", "values": [
      {"measurement": "Antimicrobial Activities (MIC) S. aureus", "setting": "[2]", "value": 50, "unit": "µM"}
    ]},
    {"compound": "CC[C@H](C)[C@H](NC(=O)[C@H](Cc1ccc(O)cc1)NC(=O)[C@H](CCC(N)=O)NC(=O)[C@H](CC(C)C)NC(=O)[C@@H](N)CO)C(=O)N[C@@H](CS)C(=O)N[C@@H](CCCNC(=N)N)C(=O)N[C@@H](C)C(=O)N[C@H](C(=O)N[C@H](C(=O)N[C@@H](CS)C(=O)N[C@@H](CCCNC(=N)N)C(=O)N[C@@H](CS)C(=O)N[C@H](C(=O)N[C@H](C(N)=O)[C@@H](C)O)[C@@H](C)O)[C@@H](C)CC)C(C)C", "note": "[Sample 8, SLQYICRAVICRCTT] (H-SLQYICRAVICRCTT-NH2)", "values": [
      {"measurement": "Antimicrobial Activities (MIC) S. aureus", "setting": "[2]", "value": 50, "unit": "µM"}
    ]},
    {"compound": "H-PLAHLCRLRVRKAIG-NH2 [Sample 11, PLAHLCRLRVRKAIG]", "values": [
      {"measurement": "Antimicrobial Activities (MIC) S. aureus", "setting": "[2]", "value": 12.5, "unit": "µM"}
    ]},
    {"compound": "H-SLKHLCRKALRSFLT-NH2 [Sample 10, SLKHLCRKALRSFLT]", "values": [
      {"measurement": "Antimicrobial Activities (MIC) S. aureus", "setting": "[2]", "value": 12.5, "unit": "µM"}
    ]},
    {"compound": "H-SLQHICRMSIRRVMS-NH2 [Sample 3, SLQHICRMSIRRVMS]", "values": [
      {"measurement": "Antimicrobial Activities (MIC) E. coli", "setting": "[1]", "value": 12.5, "unit": "µM"},
      {"measurement": "Antimicrobial Activities (MIC) S. aureus", "setting": "[2]", "value": 6.25, "unit": "µM"}
    ]},
    {"compound": "H-SLQHLCRFRIRQLVR-NH2 [Sample 9, SLQHLCRFRIRQLVR]", "values": [
      {"measurement": "Antimicrobial Activities (MIC) S. aureus", "setting": "[2]", "value": 12.5, "unit": "µM"}
    ]},
    {"compound": "H-SLQYLCRFVIRQYTR-NH2 [Sample 2, SLQYLCRFVIRQYTR]", "values": [
      {"measurement": "Antimicrobial Activities (MIC) E. coli", "setting": "[1]", "value": 25, "unit": "µM"},
      {"measurement": "Antimicrobial Activities (MIC) S. aureus", "setting": "[2]", "value": 6.25, "unit": "µM"}
    ]},
    {"compound": "H-SLTHLCRLEIRSSIK-NH2 [Sample 12, SLTHLCRLEIRSSIK]", "values": [
      {"measurement": "Antimicrobial Activities (MIC) S. aureus", "setting": "[2]", "value": 25, "unit": "µM"}
    ]},
    {"compound": "H-TLHQQCIRVLKNNID-NH2 [Comparative Sample 1, TLHQQCIRVLKNNID, reference compound]", "values": [
      {"measurement": "Antimicrobial Activities (MIC) E. coli", "setting": "[1]", "value": ">200", "unit": "µM"},
      {"measurement": "antimicrobial activity (in words), E. coli", "setting": "[1]; summary of Table 2", "value": "no antimicrobial activity was detected"},
      {"measurement": "Antimicrobial Activities (MIC) S. aureus", "setting": "[2]", "value": ">200", "unit": "µM"},
      {"measurement": "antimicrobial activity (in words), S. aureus", "setting": "[2]; summary of Table 2", "value": "no antimicrobial activity was detected"}
    ]},
    {"compound": "H-TLKKRCLQVVRKLVK-NH2 [Sample 5, TLKKRCLQVVRKLVK]", "values": [
      {"measurement": "Antimicrobial Activities (MIC) E. coli", "setting": "[1]", "value": 3.13, "unit": "µM"},
      {"measurement": "Antimicrobial Activities (MIC) S. aureus", "setting": "[2]", "value": 3.13, "unit": "µM"}
    ]},
    {"compound": "H-TLLSLCRVAVRRALG-NH2 [Sample 4, TLLSLCRVAVRRALG]", "values": [
      {"measurement": "Antimicrobial Activities (MIC) E. coli", "setting": "[1]", "value": 6.25, "unit": "µM"},
      {"measurement": "Antimicrobial Activities (MIC) S. aureus", "setting": "[2]", "value": 1.56, "unit": "µM"}
    ]},
    {"compound": "H-TLQHLCRKTVNGHLD-NH2 [Sample 6, TLQHLCRKTVNGHLD]", "values": [
      {"measurement": "Antimicrobial Activities (MIC) S. aureus", "setting": "[2]", "value": 50, "unit": "µM"}
    ]}
  ]
}
